Measurements reported in ChEMBL document CHEMBL6114990, “Design, synthesis, and biological evaluation of quinazolinone-dihydropyrimidinone as a potential anti-diabetic agent via GLUT4 translocation stimulation” (Eur J Med Chem, 2025).
Converted amounts (≈) assume the structure as drawn. The source made the active and inactive calls. The calls are words filed in the database; no cut-off is given here.

What was measured:
[1] = biological target: T1, Solute carrier family 2, facilitated glucose transporter member 4 (Rattus norvegicus) (UniProt P19357); test: Induction of GLUT4 translocation in rat L6-GLUT4myc skeletal muscle cells assessed as translocation to cell surface by measuring fold stimulation at 10 uM measured after 16 hrs by antibody-coupled colorimetric assay; assay type: cell-based; conditions: filed as activator
T1 sequence (whole entry): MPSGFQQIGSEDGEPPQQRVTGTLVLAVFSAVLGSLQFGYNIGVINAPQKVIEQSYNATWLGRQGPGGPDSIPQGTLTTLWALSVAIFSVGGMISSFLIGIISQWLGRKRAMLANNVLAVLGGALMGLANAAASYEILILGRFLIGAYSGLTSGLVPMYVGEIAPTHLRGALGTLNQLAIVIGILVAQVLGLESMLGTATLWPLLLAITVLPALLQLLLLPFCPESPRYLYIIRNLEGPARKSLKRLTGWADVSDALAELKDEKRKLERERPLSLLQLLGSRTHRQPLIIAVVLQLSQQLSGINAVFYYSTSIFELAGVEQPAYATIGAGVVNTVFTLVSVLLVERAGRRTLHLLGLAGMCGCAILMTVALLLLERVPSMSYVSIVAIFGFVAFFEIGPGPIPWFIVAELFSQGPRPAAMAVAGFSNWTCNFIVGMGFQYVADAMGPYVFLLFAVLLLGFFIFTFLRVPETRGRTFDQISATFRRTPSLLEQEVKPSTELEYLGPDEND

[2] = biological target: T1, Solute carrier family 2, facilitated glucose transporter member 4 (Rattus norvegicus); test: Induction of GLUT4 translocation in rat L6-GLUT4myc skeletal muscle cells assessed as translocation to cell surface measured after 16 hrs by antibody-coupled colorimetric assay; assay type: cell-based; conditions: filed as activator, dose 5-25 µM
[3] = biological target: T1, Solute carrier family 2, facilitated glucose transporter member 4 (Rattus norvegicus); test: Induction of GLUT4 translocation in rat L6-GLUT4myc skeletal muscle cells assessed as translocation to cell surface by measuring fold stimulation at 500 uM measured after 16 hrs by antibody-coupled colorimetric assay; assay type: cell-based; conditions: filed as activator
Rattus norvegicus [4] = test: Anti-hyperglycemic activity against STZ-induced diabetic Sprague-Dawley rat model assessed as reduction in blood glucose level at 300 mg/kg, po measured after 5 hrs relative to control; assay type: functional; design: scale not given: the % may be the effect or the level left
[5] = biological target: T1, Solute carrier family 2, facilitated glucose transporter member 4 (Rattus norvegicus); test: (§1) Induction of insulin-induced GLUT4 translocation in rat L6-GLUT4myc skeletal muscle cells assessed as translocation to cell surface at 10 uM measured after 16 hrs incubation (final 3 hrs under serum starved medium) followed by stimulated with 100 nM insulin for 20 mins by antibody-coupled colorimetric assay; assay type: cell-based; conditions: filed as activator, time 980.0 min
[6] = biological target: T1, Solute carrier family 2, facilitated glucose transporter member 4 (Rattus norvegicus); test: as §1, with “mins in presence of wortmannin PI3 Kinase inhibitor” for “mins”; assay type: cell-based; conditions: time 980.0 min
L6-GLUT4myc [7] = test: Induction of AKT phosphorylation at Ser 473 residue in rat L6-GLUT4myc skeletal muscle cells at 10 uM measured after 16 hrs by Western blot analysis; assay type: cell-based
[8] = biological target: 5'-AMP-activated protein kinase catalytic subunit alpha-1 (Rattus norvegicus) (UniProt P54645); test: Activation of AMPKalpha in rat L6-GLUT4myc cells assessed as induction of AMPKalpha phosphorylation at Thr172 residue at 10 uM measured for 16 hrs by Western blot analysis; assay type: cell-based; conditions: filed as activator
5'-AMP-activated protein kinase catalytic subunit alpha-1 (Rattus norvegicus), sequence (P54645 whole entry): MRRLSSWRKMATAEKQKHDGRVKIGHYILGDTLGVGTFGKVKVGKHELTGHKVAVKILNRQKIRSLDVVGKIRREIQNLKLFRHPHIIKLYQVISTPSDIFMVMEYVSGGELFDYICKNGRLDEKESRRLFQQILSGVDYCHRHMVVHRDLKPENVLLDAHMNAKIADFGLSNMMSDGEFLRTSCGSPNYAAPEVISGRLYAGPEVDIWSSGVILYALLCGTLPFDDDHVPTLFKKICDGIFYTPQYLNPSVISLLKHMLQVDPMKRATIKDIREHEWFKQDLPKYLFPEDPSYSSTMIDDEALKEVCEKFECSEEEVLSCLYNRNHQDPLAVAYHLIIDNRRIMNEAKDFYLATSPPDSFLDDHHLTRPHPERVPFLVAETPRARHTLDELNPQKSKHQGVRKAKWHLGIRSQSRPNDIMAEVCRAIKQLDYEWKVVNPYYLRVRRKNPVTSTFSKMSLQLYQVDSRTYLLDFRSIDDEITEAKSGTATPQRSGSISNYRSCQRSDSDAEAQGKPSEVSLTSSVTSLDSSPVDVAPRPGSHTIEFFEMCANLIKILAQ

L6-GLUT4myc [9] = test: Effect on GLUT4 expression in rat L6-GLUT4myc cells at 10 uM incubated for 16 hrs by qRT-PCR analysis; assay type: functional, cell-based
L6-GLUT4myc [10] = test: Effect on IRS1 expression in rat L6-GLUT4myc cells at 10 uM incubated for 16 hrs by qRT-PCR analysis; assay type: functional, cell-based
L6-GLUT4myc [11] = test: Effect on AKT2 expression in rat L6-GLUT4myc cells at 10 uM incubated for 16 hrs by qRT-PCR analysis; assay type: functional, cell-based
Rattus norvegicus [12] = test: Anti-hyperglycemic activity against STZ-induced diabetic Sprague-Dawley rat model assessed as reduction in blood glucose level at 100 mg/kg, po measured after 5 hrs relative to control; assay type: functional; design: scale not given: the % may be the effect or the level left
[13] = Stability of compound in simulated physiological fluid at pH 7.4 assessed as parent compound remaining measured after 120 mins by LC-MS/MS analysis; assay type: physicochemical; conditions: read-out: Stability
[14] = Stability of compound in simulated gastric fluid at pH 1.2 assessed as parent compound remaining measured after 120 mins by LC-MS/MS analysis; assay type: physicochemical; conditions: read-out: Stability
[15] = Stability of compound in simulated intestinal fluid at pH 6.8 assessed as parent compound remaining measured after 120 mins by LC-MS/MS analysis; assay type: physicochemical; conditions: read-out: Stability
[16] = Thermodynamic solubility of compound in distilled water measured for 24 hrs by HPLC analysis; assay type: physicochemical; conditions: read-out: Therm_solubility
[17] = Thermodynamic solubility of compound in HCL buffer at pH 1.2 measured for 24 hrs by HPLC analysis; assay type: physicochemical; conditions: read-out: Therm_solubility
[18] = Thermodynamic solubility of compound in tris buffer at pH 7.4 measured for 24 hrs by HPLC analysis; assay type: physicochemical; conditions: read-out: Therm_solubility
[19] = Metabolic stability in rat liver microsome assessed as half life measured upto 60 mins by HPLC analysis; assay type: ADME; conditions: microsomes, 1 h
[20] = Metabolic stability in rat liver microsome assessed as intrinsic clearance measured upto 60 mins by HPLC analysis; assay type: ADME; conditions: microsomes, 1 h

With `CC1=C(C(=O)Nc2ccc(-c3nc4ccccc4c(=O)n3C)cc2)C(CC(C)C)NC(=O)N1` (stereo not given) the fold change (FC) [1] was 1.14.
With `CC1=C(C(=O)Nc2ccc(-c3nc4ccccc4c(=O)n3C)cc2)C(c2cccc(Cl)c2)NC(=O)N1` (stereo not given) the fold change (FC) [1] was 1.92 and the Activity [2] was “Dose-dependent-effect”.
With `CCn1c(-c2ccc(NC(=O)C3=C(C)NC(=O)NC3c3ccc(Cl)cc3)cc2)nc2ccccc2c1=O` (stereo not given) the fold change (FC) [1] was 1.7.
`COc1ccc(C2NC(=O)NC(C)=C2C(=O)Nc2ccc(-c3nc4ccccc4c(=O)n3C)cc2)cc1` (stereo not given) showed a fold change (FC) [1] of 1.28.
Work on `COc1ccc(C2NC(=O)NC(C)=C2C(=O)Nc2cccc(-c3nc4ccccc4c(=O)n3C)c2)cc1OC` (stereo not given) yielded a fold change (FC) [1] of 1.02.
Work on `CC1=C(C(=O)Nc2cccc(-c3nc4ccccc4c(=O)n3C)c2)C(c2ccco2)NC(=O)N1` (stereo not given) yielded a fold change (FC) [1] of 1.1.
For `CC1=C(C(=O)Nc2ccc(-c3nc4ccccc4c(=O)n3C)cc2)C(c2ccc(F)cc2)NC(=O)N1` (stereo not given), the fold change (FC) [1] was 1.27.
Work on `COc1ccc(C2NC(=O)NC(C)=C2C(=O)Nc2ccc(-c3nc4ccccc4c(=O)n3C)cc2)cc1OC` (stereo not given) yielded a fold change (FC) [1] of 1.01.
`CCn1c(-c2ccc(NC(=O)C3=C(C)NC(=O)NC3c3ccccc3)cc2)nc2ccccc2c1=O` (stereo not given) gave a fold change (FC) [1] of 1.32.
Compound `CCn1c(-c2ccc(NC(=O)C3=C(C)NC(=O)NC3c3ccco3)cc2)nc2ccccc2c1=O` (stereo not given) has a fold change (FC) [1] of 1.32.
Compound `CN(C)C(=N)NC(=N)N` [METFORMIN] has a fold change (FC) [3] of 1.65 and an Activity (Rattus norvegicus [4]) of 64.7%.
For `CC1=C(C(=O)Nc2ccc(-c3nc4ccccc4c(=O)n3C)cc2)C(c2ccc(Cl)c(Cl)c2)NC(=O)N1` (stereo not given), the fold change (FC) [1] was 1.63.
`CC1=C(C(=O)Nc2ccc(-c3nc4ccccc4c(=O)n3C)cc2)C(c2ccc(C#N)cc2)NC(=O)N1` (stereo not given) gave a fold change (FC) [1] of 1.1.
In the case of `CC1=C(C(=O)Nc2ccc(-c3nc4ccccc4c(=O)n3C)cc2)C(c2ccc(N(C)C)cc2)NC(=O)N1` (stereo not given), the fold change (FC) [1] is reported as 1.08.
Work on `CC1=C(C(=O)Nc2ccc(-c3nc4ccccc4c(=O)n3C)cc2)C(c2ccc(Cl)cc2)NC(=O)N1` (stereo not given) yielded a fold change (FC) [1] of 1.7.
For `CC1=C(C(=O)Nc2cccc(-c3nc4ccccc4c(=O)n3C)c2)C(c2ccc(Cl)cc2)NC(=O)N1` (stereo not given), the fold change (FC) [1] was 1.17.
In the case of `CC1=C(C(=O)Nc2ccc(-c3nc4ccccc4c(=O)n3C)cc2)C(c2ccc([N+](=O)[O-])cc2)NC(=O)N1` (stereo not given), the fold change (FC) [1] is reported as 1.21.
`CCn1c(-c2ccc(NC(=O)C3=C(C)NC(=O)NC3c3scnc3C)cc2)nc2ccccc2c1=O` (stereo not given) showed a fold change (FC) [1] of 1.31.
In the case of `CC1=C(C(=O)Nc2ccc(-c3nc4ccccc4c(=O)n3C)cc2)C(c2ccc(C(F)(F)F)cc2)NC(=O)N1` (stereo not given), the fold change (FC) [1] is reported as 1.54.
`CC1=C(C(=O)Nc2ccc(-c3nc4ccccc4c(=O)n3C)cc2)C(c2scnc2C)NC(=O)N1` (stereo not given) showed a fold change (FC) [1] of 1.05.
`CC1=C(C(=O)Nc2cccc(-c3nc4ccccc4c(=O)n3C)c2)C(c2ccc(F)cc2)NC(=O)N1` (stereo not given) gave a fold change (FC) [1] of 1.13.
Compound `CC1=C(C(=O)Nc2cccc(-c3nc4ccccc4c(=O)n3C)c2)C(c2cccs2)NC(=O)N1` (stereo not given) has a fold change (FC) [1] of 1.16.
Compound `CCn1c(-c2ccc(NC(=O)C3=C(C)NC(=O)NC3c3ccsc3)cc2)nc2ccccc2c1=O` (stereo not given) has a fold change (FC) [1] of 1.29.
With `CC1=C(C(=O)Nc2ccc(-c3nc4cccc(Cl)c4c(=O)n3C)cc2)C(c2ccc(Cl)cc2Cl)NC(=O)N1` (stereo not given) the fold change (FC) [1] was 1.15.
`CC1=C(C(=O)Nc2ccc(-c3nc4ccccc4c(=O)n3C)cc2)C(c2cccs2)NC(=O)N1` (stereo not given) gave a fold change (FC) [1] of 1.27.
Work on `CC1=C(C(=O)Nc2ccc(-c3nc4ccccc4c(=O)n3C)cc2)C(c2ccco2)NC(=O)N1` (stereo not given) yielded a fold change (FC) [1] of 1.11.
For `CC1=C(C(=O)Nc2ccc(-c3nc4ccccc4c(=O)n3C)cc2)C(c2ccc(Cl)cc2Cl)NC(=O)N1` (stereo not given), the fold change (FC) [1] was 2.52, the Activity [2] was “Dose-dependent-effect” and the Activity [5] was “Active”. For the same compound, the Activity [6] was “inactive”, the Activity (L6-GLUT4myc [7]) was “No effect” and the Activity [8] was “Active”. For the same compound, the Activity (L6-GLUT4myc [9]) was “No effect”, the Activity (L6-GLUT4myc [10]) was “No effect” and the Activity (L6-GLUT4myc [11]) was “No effect”. It also gave an Activity (Rattus norvegicus [12]) of about 39.5%, a remaining at 2 h [13] of at least 60% and a remaining at 2 h [14] of at least 60%. It also gave a remaining at 2 h [15] of at least 60%, a solubility thermodynamic at 24 h [16] of 0.36 µg/mL (≈ 0.674 µM) and a solubility thermodynamic at 24 h [17] of 23.8 µg/mL (≈ 44.6 µM). For the same compound, the solubility thermodynamic at 24 h [18] was 0.25 µg/mL (≈ 0.468 µM), the t1/2 [19] was 3.16 min and the CLH [20] was 1.336 µL/min/mg.
Compound `CC(=O)CC(=O)Nc1ccc(-c2nc3ccccc3c(=O)n2C)cc1` has a fold change (FC) [1] of 1.24.
`CC1=C(C(=O)Nc2cccc(-c3nc4ccccc4c(=O)n3C)c2)C(c2ccc([N+](=O)[O-])cc2)NC(=O)N1` (stereo not given) showed a fold change (FC) [1] of 1.
In the case of `CC1=C(C(=O)Nc2cccc(-c3nc4ccccc4c(=O)n3C)c2)C(c2ccc(Cl)cc2Cl)NC(=O)N1` (stereo not given), the fold change (FC) [1] is reported as 1.14.
Work on `CC1=C(C(=O)Nc2ccc(-c3nc4ccccc4c(=O)n3C)cc2)C(c2ccccc2Cl)NC(=O)N1` (stereo not given) yielded a fold change (FC) [1] of 1.51.
